Laboratory results reported in PMC5899197 (Journal of Virology, 2018).

Molecular target: T1, BNeV VLPs (rMA415; VP1-major capsid and VP2-minor capsid) (Newbury agent 1, UniProt Q288N7)
T1 construct: gene ORF1
Assay type: binding

T1 sequence (Q288N7 whole entry, looked up): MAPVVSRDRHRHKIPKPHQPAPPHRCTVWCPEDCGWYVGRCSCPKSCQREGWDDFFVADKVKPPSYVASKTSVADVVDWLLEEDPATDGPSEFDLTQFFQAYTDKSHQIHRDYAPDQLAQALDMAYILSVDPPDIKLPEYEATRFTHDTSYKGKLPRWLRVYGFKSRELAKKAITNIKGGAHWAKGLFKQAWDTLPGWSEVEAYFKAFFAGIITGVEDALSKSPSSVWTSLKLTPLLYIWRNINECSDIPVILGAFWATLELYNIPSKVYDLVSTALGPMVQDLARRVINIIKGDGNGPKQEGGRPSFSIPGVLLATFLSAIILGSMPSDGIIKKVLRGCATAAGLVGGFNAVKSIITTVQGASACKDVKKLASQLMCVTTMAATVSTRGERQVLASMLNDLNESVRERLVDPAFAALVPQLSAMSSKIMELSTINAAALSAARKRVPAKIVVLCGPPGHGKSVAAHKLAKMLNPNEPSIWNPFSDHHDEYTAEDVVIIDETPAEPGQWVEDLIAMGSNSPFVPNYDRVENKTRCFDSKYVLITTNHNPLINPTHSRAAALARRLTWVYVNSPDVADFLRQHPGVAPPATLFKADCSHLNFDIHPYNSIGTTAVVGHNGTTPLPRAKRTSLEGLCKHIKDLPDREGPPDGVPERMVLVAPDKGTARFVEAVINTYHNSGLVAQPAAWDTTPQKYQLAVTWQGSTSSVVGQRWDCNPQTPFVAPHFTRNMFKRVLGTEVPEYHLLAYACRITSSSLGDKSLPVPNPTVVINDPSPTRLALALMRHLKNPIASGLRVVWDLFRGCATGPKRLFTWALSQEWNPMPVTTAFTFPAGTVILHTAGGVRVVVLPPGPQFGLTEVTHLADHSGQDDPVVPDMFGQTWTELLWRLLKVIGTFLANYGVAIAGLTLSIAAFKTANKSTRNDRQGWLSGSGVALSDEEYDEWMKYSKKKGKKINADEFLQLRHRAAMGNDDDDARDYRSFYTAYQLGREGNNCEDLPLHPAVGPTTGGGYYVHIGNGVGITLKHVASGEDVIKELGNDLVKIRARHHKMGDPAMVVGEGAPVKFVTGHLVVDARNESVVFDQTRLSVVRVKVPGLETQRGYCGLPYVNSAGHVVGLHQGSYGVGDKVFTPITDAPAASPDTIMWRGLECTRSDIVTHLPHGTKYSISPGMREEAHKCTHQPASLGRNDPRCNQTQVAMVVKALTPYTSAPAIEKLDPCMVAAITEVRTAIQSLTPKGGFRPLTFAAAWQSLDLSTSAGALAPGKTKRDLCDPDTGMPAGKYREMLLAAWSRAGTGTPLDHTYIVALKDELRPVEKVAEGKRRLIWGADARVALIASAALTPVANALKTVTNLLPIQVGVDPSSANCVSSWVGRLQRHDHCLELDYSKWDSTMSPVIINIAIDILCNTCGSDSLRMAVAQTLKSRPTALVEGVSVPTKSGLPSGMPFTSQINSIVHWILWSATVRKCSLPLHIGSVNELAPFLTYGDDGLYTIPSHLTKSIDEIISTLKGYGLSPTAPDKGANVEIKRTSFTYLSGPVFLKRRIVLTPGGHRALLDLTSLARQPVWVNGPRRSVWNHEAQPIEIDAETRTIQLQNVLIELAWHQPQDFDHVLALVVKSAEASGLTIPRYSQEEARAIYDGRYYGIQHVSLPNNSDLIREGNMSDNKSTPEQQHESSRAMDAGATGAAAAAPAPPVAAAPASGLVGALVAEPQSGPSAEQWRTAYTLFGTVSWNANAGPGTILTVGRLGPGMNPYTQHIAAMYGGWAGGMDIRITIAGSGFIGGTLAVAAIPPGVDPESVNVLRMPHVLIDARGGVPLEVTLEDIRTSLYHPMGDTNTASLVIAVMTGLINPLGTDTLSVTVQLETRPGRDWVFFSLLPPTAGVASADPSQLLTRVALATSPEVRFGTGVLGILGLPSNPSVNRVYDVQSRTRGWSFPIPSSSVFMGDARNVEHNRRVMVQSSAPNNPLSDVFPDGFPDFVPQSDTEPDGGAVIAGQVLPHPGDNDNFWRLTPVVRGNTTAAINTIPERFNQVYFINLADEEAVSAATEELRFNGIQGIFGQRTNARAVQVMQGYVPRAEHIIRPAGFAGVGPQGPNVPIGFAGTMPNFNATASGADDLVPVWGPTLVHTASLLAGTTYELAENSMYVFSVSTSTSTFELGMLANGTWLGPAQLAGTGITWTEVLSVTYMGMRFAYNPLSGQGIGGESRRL

CC(=O)N[C@H]1C(O)O[C@H](CO)[C@@H](O[C@@H]2O[C@H](CO)[C@H](O)[C@H](O)[C@H]2O[C@@H]2O[C@@H](C)[C@@H](O)[C@@H](O)[C@@H]2O)[C@@H]1O (stereo partly shown) [H2]
plate binding assay (ELISA), HRP-streptavidin, A450: sialyl-Le^a (SLe^a), Le^y, Le^x, αGal, H2, H1, SLe^x, A, and B type immobilized synthetic HBGA

CC(=O)N[C@H]1C(O)O[C@H](CO)[C@@H](O[C@@H]2O[C@H](CO)[C@H](O)[C@H](O)[C@H]2O)[C@@H]1O[C@@H]1O[C@@H](C)[C@@H](O)[C@@H](O)[C@@H]1O (stereo partly shown) [Le^x]
plate binding assay (ELISA), HRP-streptavidin, A450: sialyl-Le^a (SLe^a), Le^y, Le^x, αGal, H2, H1, SLe^x, A, and B type immobilized synthetic HBGA

CC(=O)N[C@H]1C(O)O[C@H](CO)[C@@H](O[C@@H]2O[C@H](CO)[C@H](O)[C@H](O)[C@H]2O[C@@H]2O[C@@H](C)[C@@H](O)[C@@H](O)[C@@H]2O)[C@@H]1O[C@@H]1O[C@@H](C)[C@@H](O)[C@@H](O)[C@@H]1O (stereo partly shown) [Le^y]
plate binding assay (ELISA), HRP-streptavidin, A450: sialyl-Le^a (SLe^a), Le^y, Le^x, αGal, H2, H1, SLe^x, A, and B type immobilized synthetic HBGA

CC(=O)N[C@H]1[C@H]([C@H](O)[C@H](O)CO)O[C@@](O[C@H]2[C@@H](O)[C@@H](CO)O[C@@H](O[C@H]3[C@H](O[C@@H]4O[C@@H](C)[C@@H](O)[C@@H](O)[C@@H]4O)[C@@H](CO)OC(O)[C@@H]3NC(C)=O)[C@@H]2O)(C(=O)O)C[C@@H]1O (stereo partly shown) [sialyl-Le^a]
plate binding assay (ELISA), HRP-streptavidin, A450: sialyl-Le^a (SLe^a), Le^y, Le^x, αGal, H2, H1, SLe^x, A, and B type immobilized synthetic HBGA
